Experimental data from the NIST ThermoML archive (doi:10.1021/je100078w).

Columns and labels:
[1] = wn = mass fraction of the nth substance listed; conditions: 101 kPa, Liquid
[2] = Liquid

NCCO [2-aminoethan-1-ol] + O
[1], w1 = 0.3002
Conditions | mass density [kg/m3] | viscosity [mPa·s]
303.15 K | 1013.02 | 2.093
313.15 K | 1007.98 | 1.603
323.15 K | 1003.42 | 1.271
333.15 K | 997.157 | 1.037
343.15 K | 989.924 | 0.8681

CN(CCO)CCO.CN(CCO)CCO.O=S(=O)(O)O [2,2'-(methylimino)diethanol sulfate (2:1)]
[2], 101.33 kPa
Conditions | mass density [kg/m3] | viscosity [mPa·s]
303.15 K | 1282.49 | –
313.15 K | 1276.83 | 1858
323.15 K | 1271.25 | 990.8
333.15 K | 1265.72 | 571.2
343.15 K | 1260.24 | 350.4

C[NH+](CCO)CCO.[Cl-] [2-hydroxy-N-(2-hydroxyethyl)-N-methylethanaminium chloride] + O
[1]
Conditions | mass density, 303.15 K [kg/m3] | mass density, 313.15 K [kg/m3] | mass density, 323.15 K [kg/m3] | mass density, 333.15 K [kg/m3] | mass density, 343.15 K [kg/m3] | viscosity, 303.15 K [mPa·s] | viscosity, 313.15 K [mPa·s] | viscosity, 323.15 K [mPa·s] | viscosity, 333.15 K [mPa·s] | viscosity, 343.15 K [mPa·s]
w1 = 0.3001 | – | – | – | – | – | 1.539 | 1.265 | 1.067 | 0.8862 | 0.7911
w1 = 0.3006 | 1058.44 | 1053.89 | 1049.23 | 1043.31 | 1037.05 | – | – | – | – | –

OCCN(CCO)CCO [triethanolamine] + CCCCn1cc[n+](C)c1.F[B-](F)(F)F
[1]
Conditions | mass density, 303.15 K [kg/m3] | mass density, 313.15 K [kg/m3] | mass density, 323.15 K [kg/m3] | mass density, 333.15 K [kg/m3] | mass density, 343.15 K [kg/m3] | viscosity, 303.15 K [mPa·s] | viscosity, 313.15 K [mPa·s] | viscosity, 323.15 K [mPa·s] | viscosity, 333.15 K [mPa·s] | viscosity, 343.15 K [mPa·s]
w1 = 0.1998 | 1175.8 | 1168.63 | 1161.5 | 1154.44 | 1147.42 | 57.94 | 35.89 | 24.02 | 17.13 | 12.82
w1 = 0.3987 | 1161.1 | 1154.41 | 1146.93 | 1139.88 | 1132.87 | 69.54 | 39.71 | 25.08 | 17.08 | 12.32
w1 = 0.5005 | 1150.08 | 1142.89 | 1135.48 | 1128.12 | 1120.99 | 86.62 | 47.22 | 28.82 | 19.11 | 13.48
w1 = 0.6 | 1146.42 | 1139.61 | 1132.76 | 1125.89 | 1119 | 116.5 | 60.67 | 36.1 | 23.35 | 16.14
w1 = 0.7999 | 1129.56 | 1123.21 | 1116.73 | 1110.16 | 1103.54 | 186.3 | 99.43 | 54.02 | 33.63 | 22.33
w1 = 1 | 1114.43 | 1108.34 | 1102.23 | 1095.96 | 1089.6 | 398.2 | 195.9 | 103.6 | 60.81 | 37.94

CCCCn1cc[n+](C)c1.F[B-](F)(F)F [1-butyl-3-methylimidazolium tetrafluoroborate] + OCCN(CCO)CCO
[1], w2 = 0
Conditions | mass density [kg/m3] | viscosity [mPa·s]
303.15 K | 1195.7 | 68.9
313.15 K | 1188.62 | 44.73
323.15 K | 1181.59 | 30.81
333.15 K | 1174.6 | 22.28
343.15 K | 1167.67 | 16.75

OCCN(CCO)CCO [triethanolamine]
[2], 101 kPa
Conditions | mass density [kg/m3] | viscosity [mPa·s]
303.15 K | 1114.43 | 398.2
313.15 K | 1108.34 | 195.9
323.15 K | 1102.23 | 103.6
333.15 K | 1095.96 | 60.81
343.15 K | 1089.6 | 37.94

C[NH+](CCO)CCO.[Cl-] [2-hydroxy-N-(2-hydroxyethyl)-N-methylethanaminium chloride]
[2], 101.33 kPa
Conditions | mass density [kg/m3] | viscosity [mPa·s]
303.15 K | 1180.42 | 512.1
313.15 K | 1174.71 | 278.2
323.15 K | 1169.24 | 164.2
333.15 K | 1163.75 | 104.1
343.15 K | 1158.29 | 70.45

C[NH+](CCO)CCO.C[NH+](CCO)CCO.C[NH+](CCO)CCO.O=P([O-])([O-])[O-] [2-hydroxy-N-(2-hydroxyethyl)-N-methylethanaminium phosphate] + O
[1]
Conditions | mass density, 303.15 K [kg/m3] | mass density, 313.15 K [kg/m3] | mass density, 323.15 K [kg/m3] | mass density, 333.15 K [kg/m3] | mass density, 343.15 K [kg/m3] | viscosity, 303.15 K [mPa·s] | viscosity, 313.15 K [mPa·s] | viscosity, 323.15 K [mPa·s] | viscosity, 333.15 K [mPa·s] | viscosity, 343.15 K [mPa·s]
w1 = 0.3001 | – | – | – | – | – | 2.63 | 2.125 | 1.805 | 1.594 | 1.455
w1 = 0.3007 | 1075.32 | 1070.31 | 1063.44 | 1055.39 | 1045.38 | – | – | – | – | –

C[NH+](CCO)CCO.F[B-](F)(F)F
[2], 101.33 kPa
Conditions | mass density [kg/m3] | viscosity [mPa·s]
303.15 K | 1425.56 | 208.8
313.15 K | 1418.1 | 117.7
323.15 K | 1410.63 | 71.79
333.15 K | 1403.2 | 46.85
343.15 K | 1395.85 | 32.35

C[NH+](CCO)CCO.F[B-](F)(F)F + O
[1]
Conditions | mass density, 303.15 K [kg/m3] | mass density, 313.15 K [kg/m3] | mass density, 323.15 K [kg/m3] | mass density, 333.15 K [kg/m3] | mass density, 343.15 K [kg/m3] | viscosity, 303.15 K [mPa·s] | viscosity, 313.15 K [mPa·s] | viscosity, 323.15 K [mPa·s] | viscosity, 333.15 K [mPa·s] | viscosity, 343.15 K [mPa·s]
w1 = 0.3001 | 1084.71 | 1075.11 | 1067.02 | 1058.01 | 1047.87 | – | – | – | – | –
w2 = 0.3001 | – | – | – | – | – | 1.245 | 1.041 | 0.8831 | 0.7874 | 0.7196

C[NH+](CCO)CCO.C[NH+](CCO)CCO.C[NH+](CCO)CCO.O=P([O-])([O-])[O-] [2-hydroxy-N-(2-hydroxyethyl)-N-methylethanaminium phosphate]
[2], 101.33 kPa
Conditions | mass density [kg/m3] | viscosity [mPa·s]
303.15 K | 1215.95 | –
313.15 K | 1208.49 | 2483
323.15 K | 1200.88 | 1426
333.15 K | 1193.23 | 822.5
343.15 K | 1185.52 | 385.4

CN(CCO)CCO.CN(CCO)CCO.O=S(=O)(O)O [2,2'-(methylimino)diethanol sulfate (2:1)] + O
[1]
Conditions | mass density, 303.15 K [kg/m3] | mass density, 313.15 K [kg/m3] | mass density, 323.15 K [kg/m3] | mass density, 333.15 K [kg/m3] | mass density, 343.15 K [kg/m3] | viscosity, 303.15 K [mPa·s] | viscosity, 313.15 K [mPa·s] | viscosity, 323.15 K [mPa·s] | viscosity, 333.15 K [mPa·s] | viscosity, 343.15 K [mPa·s]
w1 = 0.2999 | 1091.95 | 1087.46 | 1082.24 | 1075.89 | 1068.32 | – | – | – | – | –
w1 = 0.3001 | – | – | – | – | – | 1.795 | 1.446 | 1.196 | 1.012 | 0.872

CCCCn1cc[n+](C)c1.F[B-](F)(F)F [1-butyl-3-methylimidazolium tetrafluoroborate]
[2], 101.33 kPa
Conditions | mass density [kg/m3] | viscosity [mPa·s]
303.15 K | 1195.7 | 68.9
313.15 K | 1188.62 | 44.73
323.15 K | 1181.59 | 30.81
333.15 K | 1174.6 | 22.28
343.15 K | 1167.67 | 16.75

CN(CCO)CCO [N-methyldiethanolamine]
[2], 101.33 kPa
Conditions | mass density [kg/m3]
303.15 K | 1033.74
313.15 K | 1026.72
323.15 K | 1019.48
333.15 K | 1012.32
343.15 K | 1002.25

[2], 101.33 kPa, Concentric cylinders viscometry
Conditions | viscosity [mPa·s]
303.15 K | 57.69
313.15 K | 34.79
323.15 K | 21.88
333.15 K | 14.6
343.15 K | 9.855

CCCCn1cc[n+](C)c1.F[B-](F)(F)F [1-butyl-3-methylimidazolium tetrafluoroborate] + O
[1], w1 = 0.2998
Conditions | mass density [kg/m3] | viscosity [mPa·s]
303.15 K | 1045.35 | 1.292
313.15 K | 1039.84 | 1.046
323.15 K | 1033.76 | 0.8731
333.15 K | 1027.74 | 0.7473
343.15 K | 1021.18 | 0.6549

OCCN(CCO)CCO [triethanolamine] + O
[1], w1 = 0.3
Conditions | mass density [kg/m3] | viscosity [mPa·s]
303.15 K | 1042.75 | 2.354
313.15 K | 1037.93 | 1.799
323.15 K | 1032.21 | 1.425
333.15 K | 1023.74 | 1.172
343.15 K | 1011.68 | 0.9591

F[B-](F)(F)F.[NH3+]CCO [2-hydroxyethanaminium tetrafluoroborate]
[2], 101.33 kPa
Conditions | mass density [kg/m3]
303.15 K | 1490.57
313.15 K | 1482.62
323.15 K | 1474.94
333.15 K | 1467.85
343.15 K | 1464.59

[2], 101.33 kPa, Concentric cylinders viscometry
Conditions | viscosity [mPa·s]
303.15 K | 59.39
313.15 K | 48.68
333.15 K | 32.85
343.15 K | 27.84

CN(CCO)CCO [N-methyldiethanolamine] + O
[1], w1 = 0.3002
Conditions | mass density [kg/m3] | viscosity [mPa·s]
303.15 K | 1022.9 | 2.612
313.15 K | 1018 | 1.937
323.15 K | 1012.96 | 1.505
333.15 K | 1006.92 | 1.207
343.15 K | – | 0.8944

F[B-](F)(F)F.[NH3+]CCO [2-hydroxyethanaminium tetrafluoroborate] + O
[1], w1 = 0.3004
Conditions | mass density [kg/m3] | viscosity [mPa·s]
303.15 K | 1116.48 | 1.007
313.15 K | 1110.85 | 0.8573
323.15 K | 1104.95 | 0.7412
333.15 K | 1098.99 | 0.6743
343.15 K | 1093.41 | 0.5896
